Source: the supplement of paper PMC11061612

Columns and labels:
[1] = system: ESS-1 (Other Solid Carcinomas); experiment: combination Emax (second highest fraction inhibited in the dose matrix, 72 h); higher = more inhibition; extreme values may be limits of the assay
Method in brief: (§1)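 Bliss excess equals the observed combination effect minus the expected value EA + EB − EA·EB, where EA and EB are the effects of each agent alone. Combination Emax is the second-highest inhibition within the matrix. Inhibition was scaled from CellTiter-Glo 2.0 luminescence, with 0 set by vehicle wells and 1 by blank wells, after 72 hours of two-drug dosing of cells plated in 1536-well plates.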

[2] = system: HuCCT1 (Biliary Tract Carcinoma); experiment: as above
Method in brief: as §1

EW-11 (Ewing's Sarcoma) = experiment: as above
Method in brief: as §1

[3] = system: WSU-NHL (B-Cell Non-Hodgkin's Lymphoma); experiment: as above
Method in brief: as §1

[4] = system: SW1710 (Bladder Carcinoma); experiment: as above
Method in brief: as §1

[5] = system: KYAE-1 (Esophageal Adenocarcinoma); experiment: as above
Method in brief: as §1

[6] = system: LS-123 (Colorectal Carcinoma); experiment: as above
Method in brief: as §1

A673 (Ewing's Sarcoma) [7] = experiment: as above
Method in brief: as §1

[8] = system: SAS (Oral Cavity Carcinoma); experiment: as above
Method in brief: as §1

CAL-72 (Osteosarcoma) = experiment: as above
Method in brief: as §1

[9] = system: BE-13 (T-Lymphoblastic Leukemia); experiment: as above
Method in brief: as §1

A673 (Ewing's Sarcoma) [10] = experiment: Bliss excess, mean over the matrix (fraction); higher = more synergy
Method in brief: as §1

[11] = system: LNZTA3WT4 (Low Grade Glioma); experiment: as above
Method in brief: as §1

NCI-H2052 (Mesothelioma) = experiment: combination Emax (second highest fraction inhibited in the dose matrix, 72 h); higher = more inhibition; extreme values may be limits of the assay
Method in brief: as §1

[12] = system: OE21 (Esophageal Squamous Cell Carcinoma); experiment: as above
Method in brief: as §1

Row | Structure (SMILES) | combination Emax [1] | combination Emax [2] | combination Emax (EW-11 (Ewing's Sarcoma)) | combination Emax [3] | combination Emax [4] | combination Emax [5] | combination Emax [6] | combination Emax (A673 (Ewing's Sarcoma) [7]) | combination Emax [8] | combination Emax (CAL-72 (Osteosarcoma)) | combination Emax [9] | Bliss excess (A673 (Ewing's Sarcoma) [10]) | Bliss excess [11] | combination Emax (NCI-H2052 (Mesothelioma)) | combination Emax [12]
1 | C=CCn1c(=O)c2cnc(Nc3ccc(N4CCN(C)CC4)cc3)nc2n1-c1cccc(C(C)(C)O)n1 [AZD1775] + CCc1c2c(nc3ccc(O)cc13)-c1cc3c(c(=O)n1C2)COC(=O)[C@]3(O)CC [SN-38] (first compound max 1 µM, partner max 0.3 µM) | 1 | 0.809 | 0.723 | 0.999 | 0.533 | 0.267 | 0.828 | 0.973 | 1 | 0.838 | 1 | -0.0188 | -0.0414 |  | 
2 | C=CCn1c(=O)c2cnc(Nc3ccc(N4CCN(C)CC4)cc3)nc2n1-c1cccc(C(C)(C)O)n1 [AZD1775] + Nc1ccn([C@@H]2O[C@H](CO)[C@@H](O)C2(F)F)c(=O)n1 [Gemcitabine] (first compound max 1 µM, partner max 0.3 µM) | 1 | 0.805 | 0.758 | 0.987 | 0.755 | 0.316 | 0.68 | 0.937 | 0.996 | 0.716 | 1 | 0.039 | 0.0746 |  | 
3 | CN(CCO)CC[C@H](CSc1ccccc1)Nc1ccc(S(=O)(=O)NC(=O)c2ccc(N3CCC([C@@H](O)c4ccccc4-c4ccc(Cl)cc4)CC3)cc2)cc1S(=O)(=O)C(F)(F)F [AZD4320] + CS(=O)(=O)CCNCc1ccc(-c2ccc3ncnc(Nc4ccc(OCc5cccc(F)c5)c(Cl)c4)c3c2)o1 [Lapatinib] (first compound max 1 µM, 7x7, partner max 10 µM) | 0.973 | 0.615 | 0.95 | 0.945 | 0.553 | 0.97 |  | 0.973 | 0.525 | 0.933 | 1 | 0.0505 | 0.0677 |  | 
4 | Cc1c2c(nn1C)CSCc1cc(n(C)n1)CSc1cc(c3ccccc3c1)OCCCc1c(C(=O)O)n(C)c3c-2c(Cl)ccc13 [AZD5991] + CC(=O)O[C@H]1C(=O)[C@@]2(C)[C@H]([C@H](OC(=O)c3ccccc3)[C@]3(O)C[C@H](OC(=O)[C@H](O)[C@@H](NC(=O)c4ccccc4)c4ccccc4)C(C)=C1C3(C)C)[C@]1(OC(C)=O)CO[C@@H]1C[C@@H]2O [Paclitaxel] (first compound max 1 µM, 7x7, partner max 3 µM) | 1 | 0.549 | 0.895 | 0.998 | 0.836 | 0.175 | 0.463 | 0.95 | 0.66 | 0.736 | 0.852 | 0.0296 | -0.0447 |  | 
5 | Cc1c2c(nn1C)CSCc1cc(n(C)n1)CSc1cc(c3ccccc3c1)OCCCc1c(C(=O)O)n(C)c3c-2c(Cl)ccc13 [AZD5991] + CS(=O)(=O)CCNCc1ccc(-c2ccc3ncnc(Nc4ccc(OCc5cccc(F)c5)c(Cl)c4)c3c2)o1 [Lapatinib] (first compound max 1 µM, 7x7, partner max 10 µM) | 0.702 | 0.482 | 0.572 | 0.909 | 0.185 | 0.84 | 0.394 | 0.388 | 0.485 | 0.83 | 0.936 | 0.0006 | 0.0355 |  | 
6 | C[C@@H](Nc1cc(F)cc(F)c1)c1cc(C(=O)N(C)C)cc2c(=O)cc(N3CCOCC3)oc12 [AZD8186] + C1CN(CCC1(C(=O)N[C@@H](CCO)C2=CC=C(C=C2)Cl)N)C3=NC=NC4=C3C=CN4 [AZD5363] (first compound max 10 µM, 7x7, partner max 10 µM) | 0.549 | 0.413 | 0.579 | 0.9 | 0.495 | 0.154 | 0.408 | 0.253 | 0.364 | 0.29 | 0.16 | 0.0084 | -0.0615 |  | 
7 | C[C@@H](Nc1cc(F)cc(F)c1)c1cc(C(=O)N(C)C)cc2c(=O)cc(N3CCOCC3)oc12 [AZD8186] + CC(=O)c1c(C)c2cnc(Nc3ccc(N4CCNCC4)cn3)nc2n(C2CCCC2)c1=O [Palbociclib] (first compound max 10 µM, 7x7, partner max 10 µM) | 0.552 | 0.479 | 0.428 | 0.967 | 0.585 | 0.11 | 0.478 | 0.479 | 0.609 | 0.398 | 0.62 | 0.0743 | 0.111 |  | 
8 | C[C@@H](Oc1cc(-c2cnn(C3CCNCC3)c2)cnc1N)c1c(Cl)ccc(F)c1Cl [Crizotinib] + CC1=C(C(=CC=C1)Cl)NC(=O)C2=CN=C(S2)NC3=CC(=NC(=N3)C)N4CCN(CC4)CCO [Dasatinib] (first compound max 10 µM, 7x7, partner max 2 µM) | 0.987 | 0.82 | 0.788 | 0.994 | 0.944 | 0.169 | 0.967 | 0.681 | 0.779 | 0.79 | 0.943 | -0.0281 | 0.0429 |  | 
9 | CS(=O)(=O)CCNCc1ccc(-c2ccc3ncnc(Nc4ccc(OCc5cccc(F)c5)c(Cl)c4)c3c2)o1 [Lapatinib] + Cn1cnc2c(F)c(Nc3ccc(Br)cc3Cl)c(C(=O)NOCCO)cc21 [Selumetinib] (first compound max 10 µM, 7x7, partner max 10 µM) | 0.705 | 0.801 | 0.195 | 0.788 | 0.317 | 0.83 | 0.677 | 0.343 | 0.677 | 0.446 | 0.887 | -0.039 | -0.0268 |  | 
10 | CS(=O)(=O)CCNCc1ccc(-c2ccc3ncnc(Nc4ccc(OCc5cccc(F)c5)c(Cl)c4)c3c2)o1 [Lapatinib] + NC1(c2ccc(-c3nc4ccn5c(=O)[nH]nc5c4cc3-c3ccccc3)cc2)CCC1 [MK-2206] (first compound max 10 µM, 7x7, partner max 10 µM) | 0.96 | 0.893 | 0.948 | 0.969 | 0.602 | 0.892 | 0.629 | 0.363 | 0.641 | 0.89 | 0.971 | -0.064 | -0.0334 | 0.515 | 
11 | O=C(c1cc(Cc2n[nH]c(=O)c3ccccc23)ccc1F)N1CCN(C(=O)C2CC2)CC1 [Olaparib] + CC1(C)CCC(CN2CCN(c3ccc(C(=O)NS(=O)(=O)c4ccc(NCC5CCOCC5)c([N+](=O)[O-])c4)c(Oc4cnc5[nH]ccc5c4)c3)CC2)=C(c2ccc(Cl)cc2)C1 [Venetoclax] (first compound max 10 µM, 7x7, partner max 1 µM) | 0.467 | 0.0844 | 0.698 | 0.575 | 0.114 | 0.154 | 0.191 | 0.501 | 0.176 | 0.191 | 0.315 | 0.0169 | -0.0739 |  | 
12 | O=C(c1cc(Cc2n[nH]c(=O)c3ccccc23)ccc1F)N1CCN(C(=O)C2CC2)CC1 [Olaparib] + COc1nnc2ccc(N3CCC(c4ccc(OCCN5CCN(C)C(=O)[C@H]5C)cc4)CC3)nn12 [AZD5153] (first compound max 10 µM, 7x7, partner max 1 µM) | 0.695 | 0.456 | 0.712 | 0.929 | 0.379 | 0.156 | 0.359 | 0.578 | 0.742 | 0.475 | 0.648 | -0.077 | -0.0516 |  | 
13 | CCc1c2c(nc3ccc(O)cc13)-c1cc3c(c(=O)n1C2)COC(=O)[C@]3(O)CC [SN-38] + O=C(c1cc(Cc2n[nH]c(=O)c3ccccc23)ccc1F)N1CCN(C(=O)C2CC2)CC1 [Olaparib] (first compound max 0.3 µM, 7x7, partner max 10 µM) | 1 | 0.662 | 0.742 | 1 | 0.327 | 0.118 | 0.55 | 1 | 1 | 0.708 | 0.965 | 0.0875 | -0.0114 |  | 0.669
14 | Cc1nc(-c2cn3c(n2)-c2ccc(-c4cnn(C(C)(C)C(N)=O)c4)cc2OCC3)n(C(C)C)n1 [Taselisib] + O=C(Nc1ccc2[nH]nc(-c3ccncc3)c2c1)[C@@H]1CCN(CC(=O)N2CCN(c3ccc(-c4ncccn4)cc3)CC2)C1 [SCH772984] (first compound max 10 µM, 7x7, partner max 5 µM) | 0.923 | 0.839 | 0.746 | 0.97 | 0.422 | 0.408 | 0.889 | 0.705 | 0.945 | 0.438 | 0.373 | 0.131 | -0.0617 |  | 
15 | CC1(C)CCC(CN2CCN(c3ccc(C(=O)NS(=O)(=O)c4ccc(NCC5CCOCC5)c([N+](=O)[O-])c4)c(Oc4cnc5[nH]ccc5c4)c3)CC2)=C(c2ccc(Cl)cc2)C1 [Venetoclax] + CS(=O)(=O)CCNCc1ccc(-c2ccc3ncnc(Nc4ccc(OCc5cccc(F)c5)c(Cl)c4)c3c2)o1 [Lapatinib] (first compound max 1 µM, 7x7, partner max 10 µM) | 0.669 | 0.397 | 0.263 | 0.798 | 0.18 | 0.758 | 0.267 | 0.207 | 0.392 | 0.646 | 0.854 | -0.0426 | -0.0178 |  | 
